Results as given in patent US20130115256A1, “METHODS FOR TREATING OR PREVENTING VASCULAR GRAFT FAILURE” (priority 2010, published 2013).

What was measured:
[1] = tested on: human smooth muscle cell (SMC; HASMC); experiment: MTS cell proliferation assay, human smooth muscle cells; assay type: cell-based
Procedure: The CellTiter 96® AQueous Non-Radioactive Cell Proliferation Assay (Promega) was used to assess drug effects on cell proliferation according to the manufacturer's instructions. Briefly, HAECs and HASMCs from early passages were grown to 80-90% confluence in 25 cm^2 tissue culture flasks in a 37° C./5% CO2 incubator prior to harvest. 200 μl of each type of cell suspension (at 20,000 cells/cm^2) was seeded onto separate 96-well plates to yield an approximate 60% confluence per well. Cells were allowed to adhere to the plate surface overnight, followed by addition of 20 ng/ml of TNF-α to stimulate production of inflammatory agents. After a 4-6 hour incubation period, MMI-0100 peptide drug ([…]; SEQ ID NO: 1) was added and cells incubated for another 20-24 hours. Each well was then supplemented with 100 μl of fresh medium and 200 μl of CellTiter 96® AQueous One Solution Reagent and incubated for an additional 1.5-2 hours prior to measuring absorbance of each well at 490 nm with a SoftMax®-equipped plate reader.
In order to determine the effect of pharmacological doses of MMI-0100 ([…]; SEQ ID NO: 1) on human endothelial cell (EC) and smooth muscle cell (SMC) proliferation, human EC and SMC cultures were treated with three concentrations (0.25 mM, 0.5 mM, and 1 mM) of MMI-0100 ([…] (SEQ ID NO: 1)) following pre-treatment with TNF-α.

MEK1 = molecular target: T1, MEK1 (Homo sapiens, UniProt Q02750); experiment: MEK1 radiometric kinase assay; assay type: biochemical; conditions: MMI-0100 100 μM; remaining kinase activity
T1 construct: purchased Millipore (KinaseProfiler service)
From the text: A commercial radiometric assay service was used to test the specificity and potency of MMI-0100 ([…]; SEQ ID NO: 1) by measuring its half maximal inhibitory concentrations (IC50). This quantitative assay measures how much MK2 inhibitor (MMI-0100; […] (SEQ ID NO: 1)) is needed to inhibit 50% of a given biological process or component of a process (i.e., an enzyme, cell, or cell receptor). Specifically, in these assays, a positively charged substrate is phosphorylated with a radiolabeled phosphate group from an ATP if the kinase is not inhibited by an inhibitor peptide. The positively charged substrate then is attracted to a negatively charged filter membrane, quantified with a scintillation counter, and compared to a 100% activity control. ATP concentrations within 15 μM of the apparent Km for ATP were chosen since an ATP concentration near the Km may allow for the kinases to have the same relative amount of phosphorylation activity. The individual conditions for each radiometric assay are as follows.
The reaction was initiated by adding the MgATP. After incubation for 40 minutes at room temperature, 5 μl of this incubation mix was used to initiate the MAPK2 radiometric assay whose reaction condition was the same as the condition for p38 MAPK assay described above.
IC50 values for inhibitor peptides were determined using Millipore's IC50 Profiler Express service. […]

[2] = tested on: human saphenous vein (HSV); experiment: Sodium nitroprusside-induced relaxation of human saphenous vein in muscle bath; conditions: for relaxation (percent relaxation): 100 μM pretreatment, phenylephrine 10^-6 M
Procedure: In preparation for testing vein segment functional viability, HSV rings were weighed and their lengths recorded. To focus on smooth muscle responses, the endothelium was mechanically denuded by rolling the luminal surface of each ring at the tip of a fine vascular forceps before suspension in a muscle bath containing a bicarbonate buffer (120 mM NaCl, 4.7 mM KCl, 1.0 mM MgSO4, 1.0 mM NaH2PO4, 10 mM glucose, 1.5 mM CaCl2, and 25 mM […], pH 7.4) equilibrated with 95% O2 and 5% CO2 at 37° C. The rings were stretched and the length progressively adjusted until maximal tension was obtained. Normalized reactivity was obtained by determining the passive length-tension relationship for each vessel segment. Rings were maintained at a resting tension of 1 g, which produces maximal responses to contractile agonists as previously determined, and equilibrated for 2 hours in buffer. Force measurements were obtained using a Radnoti Glass Technology (Monrovia, Calif.) force transducer (159901A) interfaced with a Powerlab data acquisition system and Chart software (AD Instruments, Colorado Springs, Colo.).
HSV rings were first contracted with 110 mM KCl (with equimolar replacement of NaCl in bicarbonate buffer) and the generated force was measured. 110 mM KCl causes membrane depolarization, leading to contraction of vessels containing functionally viable smooth muscle. After multiple KCl challenges, rings were washed and allowed to equilibrate in bicarbonate solution for 30 min, and then contracted with phenylephrine (PE, 10^−7-10^−6 M). Rings were relaxed with a cumulative log dose of sodium nitroprusside (SNP), a nitric oxide donor, and the force generated was recorded. All rings were again washed and equilibrated in buffer for 15 minutes. Rings were then incubated with either buffer alone or buffer plus 100 μM of MMI-0100 ([…] (SEQ ID NO: 1)) for 2 hours, followed by treatment with the same doses of PE and SNP, and the forces generated again recorded. Measured force was normalized for ring weight and length and percent relaxation was calculated; force generated with 10^−6M of PE was set as 0% relaxation.
The enhancing effect of MMI-0100 ([…]; SEQ ID NO: 1) on smooth muscle relaxation was examined by pre-treating harvested human saphenous vein (HSV) with MMI-0100 ([…]; SEQ ID NO: 1) before SNP treatment. Segments of human saphenous vein (HSV) were equilibrated in a muscle bath and pretreated with a control solution (0.01M phosphate-buffered solution, PBS) or MMI-0100 ([…] (SEQ ID NO: 1); 30 μM, 2 hrs), contracted with norepinephrine. and relaxed with increasing doses of sodium nitroprusside (SNP, 0-1 μM). Percentage of relaxation at 0, 0.01, 0.1, and 1.0 μM of SNP was measured. […]

YARAAARQARAKALARQLGVAA [MMI-0100]
SMC proliferation compared to control (20 ng/ml TNF-α alone) ([1]; 0.25 mM MMI-0100): slightly increased | increase in SMC proliferation compared to control (20 ng/ml TNF-α alone) ([1]; 0.5 mM MMI-0100): 12% | increase in SMC proliferation compared to control (20 ng/ml TNF-α alone) ([1]; 1 mM MMI-0100): 7% | SMC morphology, phase contrast images ([1]; 24 hours treatment): no obvious morphological changes | Percent Activity, MEK1 (MEK1): 68% | increase in relaxation compared to HSV pretreated with control solution ([2]; 30 μM, 2 hrs pretreatment, norepinephrine contraction, SNP 0-1 μM, n=3): about 40% | relaxation (percent relaxation) ([2]; 10^-7 M SNP (untreated control 72.768±6.99)): 92.54±3.09 | relaxation (percent relaxation) ([2]; 10^-8 M SNP (untreated control 10.825±5.62)): 25.622±6.38
